In US8420114B2, “Alpha and beta adrenergic receptor agonists for treatment of pain and / or inflammation” (Warsaw Orthopedic, Inc., priority 2008, dated 2013):

What was measured:
[1] = test system: rat Chronic Constriction Injury model (Bennett Model) of neuropathic pain; test: von Frey monofilament test of mechanical allodynia (mechanical threshold) in rat chronic constriction injury model; type: in vivo, Wistar rat
Text: The inventors evaluated the efficacy of a various alpha-2-adrenergic receptor agonists and compared them against saline in the rat Chronic Constriction Injury model (i.e., Bennett Model) using Wistar rats. […] The doses given would mimic those achievable by a continuous release drug depot containing a biodegradable polymer (7 rats in each group). […]
(§1) Results from another rat chronic constriction injury model study silimar to that discussed in Example 5, except some drug compositions having predominantly alpha 1 agonist activity and some drug compositions having predominantly alpha 2 agonist activity were given as indicated in the table below. The doses given would mimic those achievable by a continuous release drug depot containing a biodegradable polymer (7 rats in each group). […]
(§2) The inventors evaluated the efficacy of a various beta-2-adrenergic receptor agonists and compared them to clonidine (an alpha-2-agonist) and saline in the rat Chronic Constriction Injury model (i.e., Bennett Model) using Wistar rats.
Hargreaves tests were conducted on days 7 and 14; […], where some drug compositions having predominantly beta-2 agonist activity were compared to clonidine a drug composition that has predominantly alpha-2 agonist activity and saline. The doses given would mimic those achievable by a continuous release drug depot containing a biodegradable polymer (7 rats in each group). […]

[2] = test system: rat Chronic Constriction Injury model (Bennett Model) of neuropathic pain; test: Hargreaves test of thermal hyperalgesia (thermal paw withdrawal latency) in rat chronic constriction injury model; type: in vivo, Wistar rat
Text: The inventors evaluated the efficacy of a various alpha-2-adrenergic receptor agonists and compared them against saline in the rat Chronic Constriction Injury model (i.e., Bennett Model) using Wistar rats. […] The doses given would mimic those achievable by a continuous release drug depot containing a biodegradable polymer (7 rats in each group).
Each group received the treatment indicated above for total of 15 days and subjected to the following two tests: (1) the Hargreaves test on days 7 and 14; and (2) the von Frey test on days 8 and 15.
as §1, §2
Hargreaves tests were conducted on days 7 and 14; and von Frey tests were performed on days 8 and 15, where some drug compositions having predominantly beta-2 agonist activity were compared to clonidine a drug composition that has predominantly alpha-2 agonist activity and saline. The doses given would mimic those achievable by a continuous release drug depot containing a biodegradable polymer (7 rats in each group).
Each group received the treatment indicated above for total of 15 days and the following two tests: (1) the Hargreaves test on days 7 and 14; and (2) the von Frey test on days 8 and 15.

[3] = Example 7, FIG. 40, 5 mg/kg subcutaneous every day for 15 days, day 14, vs saline
[4] = Example 5, FIG. 36, 100 micrograms/kg subcutaneous every day for 15 days, days 7 and 14

In the case of `CC(C)(C)NCC(O)c1ccc(O)c(CO)c1` (centres unmarked) [salbutamol], the “pain behavioral response for mechanical allodynia” value [1, 3] is reported as “statistically significant result of decreasing pain responses”, the “pain behavioral response for mechanical allodynia” value ([1]; Example 7, FIG. 40, 10 mg/kg subcutaneous every day for 15 days, days 8 and 15, vs saline) is reported as “statistically significant result of decreasing pain responses” and the “pain behavioral response for thermal hyperalgesia” value ([2]; Example 7, FIG. 39, 5 mg/kg subcutaneous every day for 15 days, days 7 and 14, vs saline) is reported as “statistically significant result of decreasing pain responses”. The “pain behavioral response for thermal hyperalgesia” value ([2]; Example 7, FIG. 39, 10 mg/kg subcutaneous every day for 15 days, days 7 and 14, vs saline) was “statistically significant result of decreasing pain responses”.

In the case of `Cc1cc(C(C)(C)C)c(O)c(C)c1CC1=NCCN1` [oxymetazoline], the “pain behavioral response for mechanical allodynia” value ([1]; Example 6, FIG. 38, 0.1 mg/kg subcutaneous every day for 15 days, day 8 and 15, compared to saline) is reported as “decreasing pain responses”, the “pain behavioral response for mechanical allodynia” value ([1]; Example 6, FIG. 38, 0.3 mg/kg subcutaneous every day for 15 days, day 8 and 15, compared to saline) is reported as “decreasing pain responses” and the “pain behavioral response for thermal hyperalgesia” value ([2]; Example 6, FIG. 37, 0.1 mg/kg subcutaneous every day for 15 days, day 7) is reported as “statistically significant result of decreasing pain responses”. For the same compound, the “pain behavioral response for thermal hyperalgesia” value ([2]; Example 6, FIG. 37, 0.3 mg/kg subcutaneous every day for 15 days, days 7 and 14) was “statistically significant result of decreasing pain responses”.

With `CNC[C@H](O)c1cccc(O)c1` [phenylephrine] the “pain behavioral response for mechanical allodynia” value ([1]; Example 6, FIG. 38, 10 mg/kg subcutaneous daily, day 8, compared to saline) was “decreased mechanical allodynia”, the “pain behavioral response for thermal hyperalgesia” value ([2]; Example 6, FIG. 37, 2 mg/kg subcutaneous every day for 15 days, day 7) was “statistically significant result of decreasing pain responses” and the “pain behavioral response for thermal hyperalgesia” value ([2]; Example 6, FIG. 37, 10 mg/kg subcutaneous every day for 15 days, days 7 and 14) was “statistically significant result of decreasing pain responses”.

For `Clc1cccc(Cl)c1N=C1NCCN1` [clonidine, 2,6-dichloro-N-2-imidazolidinyldenebenzenamine], the “pain behavioral response for mechanical allodynia” value ([1]; Example 5, FIG. 35, 0.02 mg/kg subcutaneous every day for 15 days, day 15, vs saline) was “statistically significant results of decreasing pain responses”, the “pain behavioral response (measured as a percentage of baseline) for mechanical allodynia” value ([1]; clonidine subcutaneously 0.02 mg/kg/day, compared to unloaded polymer depots, FIG. 4) was “reduced the behavioral response” and the “pain behavioral response for thermal hyperalgesia” value ([2]; Example 5, FIG. 36, 0.02 mg/kg subcutaneous every day for 15 days, days 7 and 14) was “statistically significant result of decreasing pain responses”. For the same compound, the “pain behavioral response for thermal hyperalgesia” value ([2]; Example 6, FIG. 37, 0.02 mg/kg subcutaneous every day for 15 days, days 7 and 14) was “statistically significant result of decreasing pain responses” and the “pain behavioral response for thermal hyperalgesia” value ([2]; Example 7, FIG. 39, 0.02 mg/kg subcutaneous every day for 15 days, day 14, vs saline) was “statistically significant result of decreasing pain responses”.

For `Cc1cccc(C(C)c2cnc[nH]2)c1C` (centres unmarked) [medetomidine], the “pain behavioral response for mechanical allodynia” value ([1]; Example 5, FIG. 35, 200 micrograms/kg subcutaneous every day for 15 days, day 15, vs saline) was “statistically significant results of decreasing pain responses”, the “pain behavioral response for thermal hyperalgesia” value [2, 4] was “statistically significant result of decreasing pain responses” and the “pain behavioral response for thermal hyperalgesia” value ([2]; Example 5, FIG. 36, 200 micrograms/kg subcutaneous every day for 15 days, day 14) was “statistically significant result of decreasing pain responses”.

With `N=C(N)N/N=C/c1c(Cl)cccc1Cl` [guanabenz] the “pain behavioral response for mechanical allodynia” value ([1]; Example 6, FIG. 38, 1 mg/kg subcutaneous daily, day 8, compared to saline) was “decreased mechanical allodynia”, the “pain behavioral response for mechanical allodynia” value ([1]; Example 6, FIG. 38, 5 mg/kg subcutaneous daily, day 15, compared to saline) was “decreased mechanical allodynia” and the “pain behavioral response for thermal hyperalgesia” value ([2]; Example 6, FIG. 37, 1 mg/kg subcutaneous every day for 15 days, day 7) was “statistically significant result of decreasing pain responses”.

For `CC(NCCc1ccc(O)cc1)C(O)c1ccc(O)cc1` (centres unmarked) [ritodrine], the “pain behavioral response for mechanical allodynia” value [1, 3] was “statistically significant result of decreasing pain responses”, the “pain behavioral response for thermal hyperalgesia” value ([2]; Example 7, FIG. 39, 2 mg/kg subcutaneous every day for 15 days, day 7, vs saline) was “statistically significant result of decreasing pain responses” and the “pain behavioral response for thermal hyperalgesia” value ([2]; Example 7, FIG. 39, 5 mg/kg subcutaneous every day for 15 days, day 14, vs saline) was “statistically significant result of decreasing pain responses”.

For `N=C(N)NC(=O)Cc1c(Cl)cccc1Cl` [guanfacine], the “pain behavioral response for mechanical allodynia” value ([1]; Example 5, FIG. 35, 5 mg/kg subcutaneous every day for 15 days, day 15, vs saline) was “statistically significant results of decreasing pain responses” and the “pain behavioral response for thermal hyperalgesia” value ([2]; Example 5, FIG. 36, 5 mg/kg subcutaneous every day for 15 days, days 7 and 14) was “statistically significant result of decreasing pain responses”.

In the case of `CC(C)(C)NCC(O)c1cc(O)cc(O)c1` (centres unmarked) [terbutaline], the “pain behavioral response for mechanical allodynia” value ([1]; Example 7, FIG. 40, 0.5 mg/kg subcutaneous every day for 15 days, day 14, vs saline) is reported as “statistically significant result of decreasing pain responses”, the “pain behavioral response for thermal hyperalgesia” value ([2]; Example 7, FIG. 39, 0.1 mg/kg subcutaneous every day for 15 days, days 7 and 14, vs saline) is reported as “statistically significant result of decreasing pain responses” and the “pain behavioral response for thermal hyperalgesia” value ([2]; Example 7, FIG. 39, 0.5 mg/kg subcutaneous every day for 15 days, days 7 and 14, vs saline) is reported as “statistically significant result of decreasing pain responses”.

`Clc1ccc2nsnc2c1NC1=NCCN1` [tizanidine] was tested, and the “pain behavioral response for mechanical allodynia” value ([1]; Example 5, FIG. 35, 100 micrograms/kg subcutaneous every day for 15 days, day 15, vs saline) was “statistically significant results of decreasing pain responses” and the “pain behavioral response for thermal hyperalgesia” value [2, 4] was “statistically significant result of decreasing pain responses”.
